Test results published in US8901118B2, “Compounds and methods for kinase modulation, and indications therefor” (Plexxikon Inc., priority 2010, dated 2014).

target: T1, Flt-3 kinase (Homo sapiens, UniProt P36888); experiment: Flt-3 kinase biochemical activity assay (AlphaScreen); settings: 100 μM ATP; read-out: Biochemical Inhibition IC50 Flt3
T1 sequence (P36888 27-993): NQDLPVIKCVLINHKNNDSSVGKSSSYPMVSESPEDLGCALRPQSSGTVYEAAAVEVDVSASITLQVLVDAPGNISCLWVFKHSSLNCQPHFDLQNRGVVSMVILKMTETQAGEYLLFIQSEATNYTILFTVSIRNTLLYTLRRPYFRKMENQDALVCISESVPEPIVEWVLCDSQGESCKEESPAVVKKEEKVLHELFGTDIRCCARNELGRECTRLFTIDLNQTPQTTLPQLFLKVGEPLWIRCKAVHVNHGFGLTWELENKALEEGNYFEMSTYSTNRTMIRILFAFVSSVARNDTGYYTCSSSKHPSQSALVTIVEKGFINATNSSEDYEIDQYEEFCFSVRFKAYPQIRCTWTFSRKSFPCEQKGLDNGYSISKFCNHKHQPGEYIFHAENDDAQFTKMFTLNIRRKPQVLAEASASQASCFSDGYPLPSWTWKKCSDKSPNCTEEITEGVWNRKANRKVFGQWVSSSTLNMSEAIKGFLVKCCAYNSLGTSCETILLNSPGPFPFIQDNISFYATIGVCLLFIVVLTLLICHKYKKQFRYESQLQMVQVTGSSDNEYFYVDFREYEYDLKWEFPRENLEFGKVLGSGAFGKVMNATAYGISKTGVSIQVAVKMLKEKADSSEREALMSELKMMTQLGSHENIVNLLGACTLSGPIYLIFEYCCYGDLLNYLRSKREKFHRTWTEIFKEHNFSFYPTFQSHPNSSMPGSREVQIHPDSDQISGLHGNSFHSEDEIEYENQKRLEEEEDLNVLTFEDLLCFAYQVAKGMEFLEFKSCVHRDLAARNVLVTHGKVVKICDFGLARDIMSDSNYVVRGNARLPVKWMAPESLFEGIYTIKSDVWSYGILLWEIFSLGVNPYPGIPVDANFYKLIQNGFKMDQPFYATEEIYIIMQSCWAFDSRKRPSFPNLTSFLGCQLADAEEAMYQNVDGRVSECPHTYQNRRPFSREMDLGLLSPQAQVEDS
Protocol: In one assay the biochemical activity IC50 values are determined with respect to inhibition of Flt-3 kinase activity, where inhibition of phosphorylation of a peptide substrate is measured as a function of compound concentration. Compounds to be tested, dissolved in DMSO (1 μL), are added to a white 384-well plate (Costar #3705). Working stocks of Flt-3 kinase (Invitrogen), biotin-(E4Y)10 substrate (Upstate Biotech, Cat#12-440), and ATP (Sigma, Cat#A-3377) are prepared in 25 mM Hepes pH 7.5, 5 mM MgCl2, 5 mM MnCl2, 1 mM DTT, and 0.01% Tween-20. All components are added to the 384-well plate for a final concentration of 1 ng/well Flt-3, 30 nM biotin-(E4Y)10 and 100 μM ATP in a volume of 20 μL. Each sample is at 5% DMSO. The plate is then incubated for 1 hour at room temperature. Just before use, working stocks of donor and acceptor beads from the AlphaScreen PY20 Detection Kit (PerkinElmer, Cat#676601M) are prepared in 25 mM Hepes pH 7.5, pH 7.4, 100 mM EDTA. 0.3% BSA. To stop the reaction, the plate is uncovered in the dark and 5 μL of Donor Beads solution (Streptavidin beads) is added to each well. The plate is incubated at room temperature for 20 minutes. Five microliters of Acceptor Beads solution (PY20 coated beads) are then added to each well. The final concentration of each bead is 10 μg/mL. The plates are incubated at room temperature for 60 minutes. Fluorescence signal is recorded on the Envision reader. Phosphorylated substrate results in binding of the PY20 antibody and association of the donor and acceptor beads such that signal correlates with kinase activity. The signal vs. compound concentration is used to determine the IC50.

Row | SMILES | IC50
1 | CCOc1ccc(Nc2ccc(C(=O)c3c[nH]c4ncnc(C)c34)c(F)n2)cn1 [Compound P-4032, [6-(6-Ethoxy-pyridin-3-ylamino)-2-fluoro-pyridin-3-yl]-(4-methyl-7H-pyrrolo[2,3-d]pyrimidin-5-yl)-methanone] | < 100 nM
2 | CCOc1ccc(Nc2ccc(C(=O)c3c[nH]c4ncnc(C5CC5)c34)c(F)n2)cn1 [Compound P-4027, (4-Cyclopropyl-7H-pyrrolo[2,3-d]pyrimidin-5-yl)-[6-(6-ethoxy-pyridin-3-ylamino)-2-fluoro-pyridin-3-yl]-methanone] | < 10 nM
3 | CCOc1ccc(Nc2ccc(C(=O)c3c[nH]c4ncnc(OC)c34)c(F)n2)cn1 [Compound P-4024, [6-(6-Ethoxy-pyridin-3-ylamino)-2-fluoro-pyridin-3-yl]-(4-methoxy-7H-pyrrolo[2,3-d]pyrimidin-5-yl)-methanone] | < 100 nM
4 | COCCOc1ncnc2[nH]cc(Cc3ccc(Nc4ccc(OC)nc4)nc3F)c12 [Compound P-4019, {6-Fluoro-5-[4-(2-methoxy-ethoxy)-7H-pyrrolo[2,3-d]pyrimidin-5-ylmethyl]-pyridin-2-yl}-(6-methoxy-pyridin-3-yl)-amine] | < 100 nM
5 | Cc1cnc2[nH]cc(C(=O)c3ccc(Nc4ccc(C)nc4)nc3F)c2c1 [Compound P-3043, [2-Fluoro-6-(6-methyl-pyridin-3-ylamino)-pyridin-3-yl]-(5-methyl-1H-pyrrolo[2,3-b]pyridin-3-yl)-methanone] | < 1000 nM
6 | CCOc1ncnc2[nH]cc(Cc3ccc(Nc4cnn(CC)c4)nc3F)c12 [Compound P-4012, [5-(4-Ethoxy-7H-pyrrolo[2,3-d]pyrimidin-5-ylmethyl)-6-fluoro-pyridin-2-yl]-(1-ethyl-1H-pyrazol-4-yl)-amine] | < 1000 nM
7 | CCOc1ccc(Nc2ccc(C(=O)c3c[nH]c4ncc(C)cc34)c(F)n2)cn1 [Compound P-3045, [6-(6-ethoxy-pyridin-3-ylamino)-2-fluoro-pyridin-3-yl]-(5-methyl-1H-pyrrolo[2,3-b]pyridin-3-yl)-methanone] | < 100 nM
8 | CCc1ccc(Nc2ncc(Cc3c[nH]c4ncc(C)cc34)cn2)cc1 [Compound P-3025, (4-Ethyl-phenyl)-[5-(5-methyl-1H-pyrrolo[2,3-b]pyridin-3-ylmethyl)-pyrimidin-2-yl]-amine] | < 10 nM
9 | COc1cc(Nc2ncc(Cc3c[nH]c4ncc(C)cc34)cn2)ccc1F [Compound P-3022, (4-Fluoro-3-methoxy-phenyl)-[5-(5-methyl-1H-pyrrolo[2,3-b]pyridin-3-ylmethyl)-pyrimidin-2-yl]-amine] | < 100 nM
10 | COc1ccc(Nc2ccc(Cc3c[nH]c4ncnc(OC)c34)c(F)n2)cn1 [Compound P-4001, [6-Fluoro-5-(4-methoxy-7H-pyrrolo[2,3-d]pyrimidin-5-ylmethyl)-pyridin-2-yl]-(6-methoxy-pyridin-3-yl)-amine] | < 1000 nM
11 | CCOc1ccc(Nc2ncc(Cc3c[nH]c4ncc(C)cc34)cn2)cc1 [Compound P-3026, (4-Ethoxy-phenyl)-[5-(5-methyl-1H-pyrrolo[2,3-b]pyridin-3-ylmethyl)-pyrimidin-2-yl]-amine] | < 100 nM
12 | CCOc1ccc(Nc2ncc(Cc3c[nH]c4ncc(C)cc34)cn2)cn1 [Compound P-3027, (6-Ethoxy-pyridin-3-yl)-[5-(5-methyl-1H-pyrrolo[2,3-b]pyridin-3-ylmethyl)-pyrimidin-2-yl]-amine] | < 10 nM
13 | CCn1cc(Nc2ccc(Cc3c[nH]c4ncnc(OCCOC)c34)c(F)n2)cn1 [Compound P-4014, (1-Ethyl-1H-pyrazol-4-yl)-{6-fluoro-5-[4-(2-methoxy-ethoxy)-7H-pyrrolo[2,3-d]pyrimidin-5-ylmethyl]-pyridin-2-yl}-amine] | < 1000 nM
14 | CCOc1ncnc2[nH]cc(C(=O)c3ccc(Nc4ccc(OC)nc4)nc3F)c12 [Compound P-4025, (4-Ethoxy-7H-pyrrolo[2,3-d]pyrimidin-5-yl)-[2-fluoro-6-(6-methoxy-pyridin-3-ylamino)-pyridin-3-yl]-methanone] | < 1000 nM
15 | COc1ccccc1Nc1ncc(Cc2c[nH]c3ncc(Cl)cc23)cn1 [Compound P-3016, [5-(5-Chloro-1H-pyrrolo[2,3-b]pyridin-3-ylmethyl)-pyrimidin-2-yl]-(2-methoxy-phenyl)-amine] | < 100 nM

Other lines, results leading:

Row | IC50 | SMILES
16 | < 10 nM | COc1ncnc2[nH]cc(Cc3ccc(Nc4ccc(C5CC5)nc4)nc3F)c12 [Compound P-4004, (6-Cyclopropyl-pyridin-3-yl)-[6-fluoro-5-(4-methoxy-7H-pyrrolo[2,3-d]pyrimidin-5-ylmethyl)-pyridin-2-yl]-amine]
17 | < 100 nM | CCOc1ccc(Nc2ccc(Cc3c[nH]c4ncnc(OC)c34)c(F)n2)cn1 [Compound P-4005, (6-Ethoxy-pyridin-3-yl)-[6-fluoro-5-(4-methoxy-7H-pyrrolo[2,3-d]pyrimidin-5-ylmethyl)-pyridin-2-yl]-amine]
18 | < 100 nM | CCc1ccc(Nc2ccc(Cc3c[nH]c4ncnc(C)c34)c(F)n2)cn1 [Compound P-4009, (6-Ethyl-pyridin-3-yl)-[6-fluoro-5-(4-methyl-7H-pyrrolo[2,3-d]pyrimidin-5-ylmethyl)-pyridin-2-yl]-amine]
19 | < 1000 nM | COc1ncnc2[nH]cc(Cc3ccc(Nc4ccc(C)nc4)nc3F)c12 [Compound P-4010, [6-Fluoro-5-(4-methoxy-7H-pyrrolo[2,3-d]pyrimidin-5-ylmethyl)-pyridin-2-yl]-(6-methyl-pyridin-3-yl)-amine]
20 | < 100 nM | CCOc1ccc(Nc2ccc(Cc3c[nH]c4ncnc(C)c34)c(F)n2)cn1 [Compound P-4006, (6-Ethoxy-pyridin-3-yl)-[6-fluoro-5-(4-methyl-7H-pyrrolo[2,3-d]pyrimidin-5-ylmethyl)-pyridin-2-yl]-amine]
21 | < 100 nM | CCOc1ncnc2[nH]cc(Cc3ccc(Nc4ccc(C)nc4)nc3F)c12 [Compound P-4017, [5-(4-Ethoxy-7H-pyrrolo[2,3-d]pyrimidin-5-ylmethyl)-6-fluoro-pyridin-2-yl]-(6-methyl-pyridin-3-yl)-amine]
22 | < 100 nM | CCOc1ncnc2[nH]cc(Cc3ccc(Nc4ccc(OC)nc4)nc3F)c12 [Compound P-4018, [5-(4-Ethoxy-7H-pyrrolo[2,3-d]pyrimidin-5-ylmethyl)-6-fluoro-pyridin-2-yl]-(6-methoxy-pyridin-3-yl)-amine]
23 | < 10 nM | CCc1ccc(Nc2ccc(Cc3c[nH]c4ncnc(OCCOC)c34)c(F)n2)cn1 [Compound P-4016, (6-Ethyl-pyridin-3-yl)-{6-fluoro-5-[4-(2-methoxy-ethoxy)-7H-pyrrolo[2,3-d]pyrimidin-5-ylmethyl]-pyridin-2-yl}-amine]
24 | < 100 nM | CCc1ccc(Nc2ccc(Cc3c[nH]c4ncnc(C5CC5)c34)c(F)n2)cn1 [Compound P-4028, [5-(4-Cyclopropyl-7H-pyrrolo[2,3-d]pyrimidin-5-ylmethyl)-6-fluoro-pyridin-2-yl]-(6-ethyl-pyridin-3-yl)-amine]
25 | < 1000 nM | COc1ncnc2[nH]cc(Cc3ccc(Nc4ccc(Cl)nc4)nc3F)c12 [Compound P-4003, (6-Chloro-pyridin-3-yl)-[6-fluoro-5-(4-methoxy-7H-pyrrolo[2,3-d]pyrimidin-5-ylmethyl)-pyridin-2-yl]-amine]
26 | < 1000 nM | Cc1ccc(Nc2ccc(Cc3c[nH]c4ncnc(C5CC5)c34)c(F)n2)cn1 [Compound P-4030, [5-(4-Cyclopropyl-7H-pyrrolo[2,3-d]pyrimidin-5-ylmethyl)-6-fluoro-pyridin-2-yl]-(6-methyl-pyridin-3-yl)-amine]
